Key:
melanoma cells [1] = assay: Senescence assay (β-galactosidase staining) and arborization; assay type: cell-based, mouse
Description: Senescence was assessed with the Senescence Cells Histochemical Staining Kit (Sigma).
During the first 2-3 weeks of incubating melanoma cells in 2% methyl sulfone, replacement of the 2% methyl sulfone medium with medium without drug reversed the phenotypes described above. Re-adding 2% methyl sulfone to the cells re-induced the non-malignant phenotypes. This cycle of reversal occurred until the cells were incubated with 2% methyl sulfone for more than three weeks. […] As a further test, we detached senescent cells from the culture dish by trypsinization and replated the cells in medium without methyl sulfone.
Mature melanocytes assume a morphology that is similar to neuronal cells by having a small area of cytoplasm surrounding the nucleus and long extensions called arbors. The primary function of melanocytes is to produce melanin and package the melanin in vesicles called melanosomes. Melanosomes are then transported to the tips of melanocytes arbors. These tips are phagocytized by keratinocytes, cells that sit near the skin's surface, and the newly acquired melanosomes form an umbrella-like shield around the nuclei of keratinocytes to protect these cells' DNA from UV-inducing mutations.

melanoma cells [2] = assay: Cell wounding / wound healing; assay type: cell-based, mouse; conditions: 2% methyl sulfone
Description: Cells were cultured to approximately 90% confluence in 35 mm tissue culture plates. Methyl sulfone (2%) was added to half the plates and 48 hours later cells were wounded with a sterile plastic 1000 μl pipette tip. Cells were washed two times with medium to remove cell debris and incubated at 37° C. over night in RMPI medium +/−2% methyl sulfone. After 72 hours, wound edges were photographed and recorded with a Nikon TE300 inverted microscope (Nikon) equipped with a 10×0.25 NA Plan Achromat objective lens. Time-series (5 min long) of phase contrast images were acquired at a video rate (1 frame/3s) with a Watec-902B CCD video camera (Watec Corp., Japan) via stream acquisition option of Metamorph image acquisition and analysis software (Universal Imaging Corp., Downington, Pa.). During the recordings, cells were kept at 37° C. and 10 mM Hepes. Time series and photographs of cells +/−2% methyl sulfone were obtained every 24 hours for up to 120 hrs.
We tested whether melanoma cells treated with 2% methyl sulfone would function properly in the process of wound healing. As described in herein, control melanoma cells and cells treated with 2% methyl sulfone were grown to confluence. Scraping a layer of confluent cells with a plastic pipette tip formed wounds. Live cell video microscopy was used to monitor migration of cells into the wound.

[3] = system: Cloudman S-91 mouse melanoma cells (sub-clone M-3); assay: Annexin V-FITC/propidium iodide apoptosis assay in melanoma cells; assay type: cell-based
Description: Cloudman S-91 mouse melanoma cells (sub-clone M-3, CCL 53.1; American Type Culture Collection, Rockville, Md.) were grown in RMPI medium supplemented with 10% fetal bovine serum (Invitrogen, Inc) and 5% penicillin-streptomycin (Invitrogen, Inc). Mouse breast cancer cells (66Cl-1; American Type Culture Collection, Rockville, Md.) that are estrogen-receptor negative were grown in DMEM medium supplemented with 10% fetal bovine serum (Invitrogen, Inc) and 5% penicillin/streptomycin (Invitrogen, Inc). Human T-cell leukemic lymphocytes (CEM; American Type Culture Collection, Rockville, Md.) were grown in MEM medium supplemented with 7% fetal calf serum. Cultures were passaged twice a week.
Early and late apoptosis was assessed with the Annexin V-FITC Apoptosis Detection Kit from PharMingen (Becton-Dickinson, San Diego, Calif.). Images were obtained at the Center for Cell Analysis and Modeling, University of Connecticut Health Center, Farmington, Conn., with an Axioplan CCD Microscope equipped with a 40×1.3 NA FL objective lens and Photometrics PXL-EEV37 high speed digital cooled CCD camera via Metamorph image acquisition and analysis software (Universal Imaging Corp., Downington, Pa.).
M3 Cloudman melanoma cells were plated into culture dishes containing RPMI medium. After 24 hour media was changed to control medium (no drug) or to media containing different concentrations of methyl sulfone (1-10% methyl sulfone in RPMI medium). Cells were examined by live cell video microscopy immediately after adding drug and every 24 hours up to 144 hours.
Briefly, melanoma cells (Cloudman M3 cell line) were plated at 10^5 cells/ml in RPMI medium. After 24 hours, medium was replaced with RPMI containing different concentrations (grams/volume) of MMS, MES and EES. After 24 hours, apoptosis was assayed using the Becton-Dickinson Annexin V-FITC/Propidium Iodide Kit and a Nikon fluorescent microscope as described by the manufacturer.

[4] = system: microtubules in melanoma cells; assay: Immunofluorescence of microtubules, incl. vinblastine stability test; assay type: cell-based, mouse
Description: Cells were plated in 6-100 mm tissue culture plates, each containing 1 polylysine-coated 10-well slide, or plated onto polylysine-coated coverslips. Once cells were approximately 50% confluent, 2% methyl sulfone was added to cells for 10, 30, 60, 90, and 120 minutes. At each time point cells were placed in microtubule stabilizing buffer ( ) for 10 minutes followed by incubation in −20° C. methanol for 5 minutes. Cells were washed twice in 0.1% Triton X-100 in PBS at room temperature, then incubated with mouse monoclonal anti-alpha-tubulin antibody (Santa Cruz Biotech, Calif.; diluted 1/200 in 1% BSA/PBS) for 1.5 hours. Cells were washed 5 times in 0.1% Triton X-100/PBS, 3 minutes each. Cells were incubated with secondary antibody (Alexa Fluor 568 rabbit anti-mouse antibody; diluted 1/100 in 1%/PBS) for 30 minutes in the dark. Cells were washed five times in 0.1% Triton X-100/PBS, three minutes each. Cells were washed two times in PBS at 2 minute intervals and incubated with DAPI (1 μg/ml in PBS) for 5 minutes at room temperature and in the dark. Cells were washed in PBS for one minute. SlowFade was added to glass slides, coverslips were placed cell side down and sealed with nail polish. Microtubules were viewed at the Center for Cell Analysis and Modeling, University of Connecticut Health Center, Farmington, Conn., with an Axioplan CCD Microscope equipped with a 40×1.3 NA FL objective lens and Photometrics PXL-EEV37 high speed digital cooled CCD camera via Metamorph image acquisition and analysis software (Universal Imaging Corp., Downington, Pa.).
One assay to test stability of microtubules is to give cells increasing concentrations of a microtubule-disassembly drug and use immunofluorescence microscopy to assess microtubule lengths (Caron et al). A higher concentration of drug will be required to disassemble the more stabilized microtubules. We used different concentrations of the anti-microtubule drug, vinblastine, to assess microtubule stability in control cells and cells incubated with 2% methyl sulfone.

## methyl sulfone
Melanoma cells [1]; 2% methyl sulfone
  morphology of senescent melanoma cells (arborization): took on the morphology of mature melanocytes
  survival of arborized cells in culture: at least two months
Melanoma cells [1]; 2% methyl sulfone for more than three weeks
  melanoma cells senescent (β-galactosidase activity): greater than 95%
Melanoma cells [1]; senescent cells, 2% methyl sulfone removed
  senescence after replacing drug medium with control medium: remained senescent
Melanoma cells [2]
  behaviour when the wound was covered: stopped migrating and once again became contact inhibited
  rate of migration into the wound area: slower rate than control cells
[3]; 6% methyl sulfone, 24 hours
  apoptosis of melanoma cells: induced into apoptosis
[3]; 24 hours, especially at less than 5%
  apoptosis of M3 cells compared with MES or EES: significantly less apoptosis
[3]; conclusion from FIGS. 16 and 17
  window of concentrations between killing cancer cells and harming normal cells: wide window
[3]; melanoma cells, FIG. 1 legend
  methyl sulfone concentration at which melanoma cells became apoptotic: over 2%
[4]; 2% methyl sulfone
  time to microtubule disassembly after adding drug: ≤ 10 min
[4]; 2% methyl sulfone plus 10^−7 M vinblastine
  microtubules in the presence of vinblastine (stability): clearly visible
[4]; 2% methyl sulfone, over the next two hours
  pattern of microtubule reassembly: re-appeared in an orderly pattern
